The target of assay [1] is T1, TXA2 synthetase (Oryctolagus cuniculus, UniProt G1TAZ9).
T1 construct: The platelet microsome fraction was separated from rabbit and from human blood; from tissue; host or cells: rabbit blood platelets, microsome fraction
T1 sequence (G1TAZ9 1-530): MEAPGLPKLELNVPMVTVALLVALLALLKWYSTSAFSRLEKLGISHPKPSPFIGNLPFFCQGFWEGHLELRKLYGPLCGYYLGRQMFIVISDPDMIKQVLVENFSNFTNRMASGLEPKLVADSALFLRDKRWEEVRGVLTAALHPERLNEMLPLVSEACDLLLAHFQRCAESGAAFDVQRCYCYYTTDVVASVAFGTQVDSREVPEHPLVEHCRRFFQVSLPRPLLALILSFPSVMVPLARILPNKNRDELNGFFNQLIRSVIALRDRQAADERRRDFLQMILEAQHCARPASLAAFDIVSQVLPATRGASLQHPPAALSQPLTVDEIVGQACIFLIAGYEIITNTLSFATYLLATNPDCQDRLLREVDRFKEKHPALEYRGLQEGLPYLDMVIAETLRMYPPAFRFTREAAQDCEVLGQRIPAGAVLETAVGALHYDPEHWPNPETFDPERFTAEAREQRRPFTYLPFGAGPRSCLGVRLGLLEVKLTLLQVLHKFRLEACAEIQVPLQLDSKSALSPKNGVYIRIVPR
Put plainly: Inhibition of Thromboxane A2 Synthetase (rabbit platelet microsomes). The format is biochemical. The following applies: 0.1 mM [14C] arachidonic acid, 1 minute, 22° C., compounds as hydrochloride except No. 40 (free base). As to the method: The platelet microsome fraction was separated from rabbit and from human blood by the method of Needleman et al. [Needleman et al., Science, 193, 163 (1976)]. The microsomal TXA2 synthetase activity in the presence of various of the compounds of the invention at various concentrations was assayed by a modification of the method of […] et al. [[…] et al., Prostaglandins, 21, 543 (1981)] by incubating the microsome fractions with labelled 1-[^14 C] arachidonic acid at a concentration of 0.1 mM for 1 minute at 22° C., to a final volume of 0.2 ml. The reaction was terminated by the addition of […] of 0.2M citric acid, and then the mixture was extracted with 1.5 ml of ethyl acetate. […] The developing solvent for the chromatography was a 90:8:1:0.8 by volume mixture of chloroform, methanol, acetic acid and water. […] The results are shown in the following Table as the IC50, i.e. the concentration required to inhibit the activity of thromboxane synthetase by 50%. […] The compounds of the invention are identified in the following Tables by the numbers heretofore assigned to them. All compounds were employed in the form of the hydrochloride, except Compound No. 40, which was employed as the free base. The results using rabbit platelet microsomes are given in Table 4, whilst the results using human platelet microsomes are given in Table 5.

Assay [2] has as its system synthesis of TXA2. The settings on record: in words; Prostaglandins, 13, 611 (1977); cited from earlier work.
For assay [3], the system named is pulmonary thromboembolisms caused by the intravenous injection of arachidonic acid. Put plainly: Antithrombotic Activity in Rabbits (arachidonic acid i.v. sudden death). The class given is in vivo, male Japanese white rabbits. The following applies: Oryctolagus cuniculus; oral, 1 hour before 1.3 mg/kg i.v. arachidonic acid; sudden deaths; Probit's method. As to the method:
This test was carried out by a modification of the method of Silver et al. [Science, 183, 1085 (1974)]. The test animals used were male Japanese white rabbits of approximately 3 kg bodyweight.
Each group of rabbits was administered orally the test compound at an appropriate dose and then, one hour after the oral administration, each was given 1.3 mg/kg or arachidonic acid by intravenous injection. The test animals were observed and sudden deaths during the test period were recorded. The ED50 was determined by Probit's method.
Unmedicated rabbits were employed as a control, without administering any test compound, but these were all dead within several minutes after the injection of arachidonic acid, as a result of pulmonary thromboembolisms.

For assay [4], the target named is T2, TXA2 synthetase (Homo sapiens, UniProt P24557).
T2 construct: The platelet microsome fraction was separated from rabbit and from human blood; from tissue; host or cells: human blood platelets, microsome fraction
T2 sequence (P24557 1-533): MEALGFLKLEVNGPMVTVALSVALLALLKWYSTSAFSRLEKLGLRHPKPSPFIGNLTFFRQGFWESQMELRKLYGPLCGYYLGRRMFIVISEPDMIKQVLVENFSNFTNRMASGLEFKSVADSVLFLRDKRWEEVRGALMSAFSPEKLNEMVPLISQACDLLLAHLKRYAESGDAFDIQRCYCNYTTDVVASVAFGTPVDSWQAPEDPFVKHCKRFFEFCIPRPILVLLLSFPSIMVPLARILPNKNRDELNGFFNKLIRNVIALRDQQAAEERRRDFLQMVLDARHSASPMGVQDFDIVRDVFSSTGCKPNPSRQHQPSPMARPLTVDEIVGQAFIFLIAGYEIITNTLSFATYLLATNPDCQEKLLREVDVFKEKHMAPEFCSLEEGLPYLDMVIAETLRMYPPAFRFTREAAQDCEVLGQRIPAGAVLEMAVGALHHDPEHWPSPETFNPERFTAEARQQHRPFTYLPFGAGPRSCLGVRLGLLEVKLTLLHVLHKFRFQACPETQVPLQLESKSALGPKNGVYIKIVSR
As to the kind of experiment: Inhibition of Thromboxane A2 Synthetase (human platelet microsomes). The class given is biochemical. The following applies: 0.1 mM [14C] arachidonic acid, 1 minute, 22° C., compounds as hydrochloride. As to the method: The platelet microsome fraction was separated from rabbit and from human blood by the method of Needleman et al. [Needleman et al., Science, 193, 163 (1976)]. The microsomal TXA2 synthetase activity in the presence of various of the compounds of the invention at various concentrations was assayed by a modification of the method of […] et al. [[…] et al., Prostaglandins, 21, 543 (1981)] by incubating the microsome fractions with labelled 1-[^14 C] arachidonic acid at a concentration of 0.1 mM for 1 minute at 22° C., to a final volume of 0.2 ml. The reaction was terminated by the addition of […] of 0.2M citric acid, and then the mixture was extracted with 1.5 ml of ethyl acetate. […] The developing solvent for the chromatography was a 90:8:1:0.8 by volume mixture of chloroform, methanol, acetic acid and water.

The text below walks through data of patent US4894385A, “Imidazole derivatives as inhibitors of TXA2 synthesis” (Sankyo Company Limited, priority 1985, dated 1990).

One may read the IC50 as the concentration at which inhibition is half-maximal. A lower IC50 goes with higher potency. By ED50 is commonly meant the midpoint of the dose-response relation. Lower therefore signals greater potency.

Structures can show the parent of a compound that is named as a salt.

In turn, `O=C(O)c1ccc(SC(Cn2ccnc2)c2ccc(Cl)cc2Cl)cc1` (stereo not drawn) [Compound 44, 4-[1-(2,4-Dichlorophenyl)-2-(imidazol-1-yl)ethylthio]-benzoic acid hydrochloride] displayed an IC50 in assay [1] of 47 nM.

On to `COc1ccc(C(Cn2ccnc2)Sc2ccc(C(=O)O)cc2)c(OC)c1` (stereo not drawn) [Compound 74, 4-[1-(2,4-Dimethoxyphenyl)-2-(imidazol-1-yl)ethylthio]benzoic acid hydrochloride], for which, in assay [1], the IC50 was 40 nM.

`COc1cc(OC)c(C(Cn2ccnc2)Sc2ccc(C(=O)O)cc2)c(OC)c1` (stereo not drawn) [Compound 84, 4-[1-(2,4,6-Trimethoxyphenyl)-2-(imidazol-1-yl)ethylthio]benzoic acid hydrochloride] gave an IC50 in assay [1] of 33 nM. This IC50 and that of the compound before are within 1.5-fold of each other.

Turning to `c1c[nH]cn1` [imidazole], the “inhibitory effect on the synthesis of TXA2” value in assay [2] is “some inhibitory effect”.

The compound `Cc1cc(C)c(C(Cn2ccnc2)Sc2ccc(C(=O)O)cc2)c(C)c1` (stereo not drawn) [Compound 62, 4-[1-(2,4,6-Trimethylphenyl)-2-(imidazol-1-yl)ethylthio]benzoic acid hydrochloride] returned an IC50 in assay [1] of 69 nM.

With `COc1cccc(OC)c1C(Cn1ccnc1)Sc1ccc(C(=O)O)cc1` (stereo not drawn) [Compound 79, 4-[1-(2,6-Dimethoxyphenyl)-2-imidazol-1-yl)ethylthio]benzoic acid hydrochloride], the IC50 in assay [1] was 57 nM. This IC50 and that of the compound before are within 1.5-fold of each other.

With `Cl.O=C(O)c1ccc(OCCn2ccnc2)cc1` [Dazoxiben, 4-[2-(1-imidazolyl)ethoxy]benzoic acid hydrochloride, reference compound], it took a dose of 1.1 mg/kg to reach the 50% effect level in assay [3] (ED50).

As for `O=C(O)c1ccc(SC(Cn2ccnc2)c2ccccc2Cl)cc1` (stereo not drawn) [Compound 49, 4-[1-(2-Chlorophenyl)-2-(imidazol-1-yl)ethylthio]benzoic acid hydrochloride], in assay [1], the 50% inhibitory concentration (IC50) is 81 nM.

Regarding `Cc1ccccc1C(Cn1ccnc1)Sc1ccc(C(=O)O)cc1` (stereo not drawn) [Compound 58, 4-[1-(2-Methylphenyl)-2-(imidazol-1-yl)ethylthio]benzoic acid hydrochloride], the IC50 in assay [4] is 52 nM; in assay [1] it was 67 nM.

On to `COc1ccccc1C(Cn1ccnc1)Sc1ccc(C(=O)O)cc1.Cl` (stereo not drawn) [Compound 70, 4-[1-(2-Methoxyphenyl)-2-(imidazol-1-yl)ethylthio]benzoic acid hydrochloride], for which the values for the IC50 in assay [4] and in assay [1] were 73 nM and 59 nM, respectively. The 50% effect level in assay [3] (ED50) was put at a dose of 0.13 mg/kg.

For `Cn1ccnc1` [1-methylimidazole], the “inhibitory effect on the synthesis of TXA2” value in assay [2] is “some inhibitory effect”.

As to `O=C(O)c1ccc(SC(Cn2ccnc2)c2ccccc2)cc1` (stereo not drawn) [Compound 40, 4-[1-Phenyl-2-(imidazol-1-yl)ethylthio]benzoic acid], 71 nM corresponded to half-maximal inhibition in assay [1] (IC50).
